We go through ten molecules from ChEMBL document CHEMBL1127958, “Dual metalloprotease inhibitors. III. utilization of bicyclic and monocyclic diazepinone based mercaptoacetyls” (Bioorg Med Chem Lett, 1994).

In one test the target is Neprilysin (Homo sapiens, UniProt P08473). Briefly: In vitro inhibitory activity against neutral endopeptidase (NEP) was determined. The note with it: read-out: I50.
In the next test the test system is Rattus norvegicus. Briefly: In vivo effective dose against angiotensin I induced pressor response after intravenous administration in normotensive rats. The format is functional.
Test [1] deals with Angiotensin-converting enzyme (Rattus norvegicus) (UniProt P47820). Briefly: In vitro inhibitory activity against angiotensin converting enzyme (ACE) in rat was determined. The settings on record: read-out: I50.
Chain of Angiotensin-converting enzyme (Rattus norvegicus) (P47820 whole entry, looked up): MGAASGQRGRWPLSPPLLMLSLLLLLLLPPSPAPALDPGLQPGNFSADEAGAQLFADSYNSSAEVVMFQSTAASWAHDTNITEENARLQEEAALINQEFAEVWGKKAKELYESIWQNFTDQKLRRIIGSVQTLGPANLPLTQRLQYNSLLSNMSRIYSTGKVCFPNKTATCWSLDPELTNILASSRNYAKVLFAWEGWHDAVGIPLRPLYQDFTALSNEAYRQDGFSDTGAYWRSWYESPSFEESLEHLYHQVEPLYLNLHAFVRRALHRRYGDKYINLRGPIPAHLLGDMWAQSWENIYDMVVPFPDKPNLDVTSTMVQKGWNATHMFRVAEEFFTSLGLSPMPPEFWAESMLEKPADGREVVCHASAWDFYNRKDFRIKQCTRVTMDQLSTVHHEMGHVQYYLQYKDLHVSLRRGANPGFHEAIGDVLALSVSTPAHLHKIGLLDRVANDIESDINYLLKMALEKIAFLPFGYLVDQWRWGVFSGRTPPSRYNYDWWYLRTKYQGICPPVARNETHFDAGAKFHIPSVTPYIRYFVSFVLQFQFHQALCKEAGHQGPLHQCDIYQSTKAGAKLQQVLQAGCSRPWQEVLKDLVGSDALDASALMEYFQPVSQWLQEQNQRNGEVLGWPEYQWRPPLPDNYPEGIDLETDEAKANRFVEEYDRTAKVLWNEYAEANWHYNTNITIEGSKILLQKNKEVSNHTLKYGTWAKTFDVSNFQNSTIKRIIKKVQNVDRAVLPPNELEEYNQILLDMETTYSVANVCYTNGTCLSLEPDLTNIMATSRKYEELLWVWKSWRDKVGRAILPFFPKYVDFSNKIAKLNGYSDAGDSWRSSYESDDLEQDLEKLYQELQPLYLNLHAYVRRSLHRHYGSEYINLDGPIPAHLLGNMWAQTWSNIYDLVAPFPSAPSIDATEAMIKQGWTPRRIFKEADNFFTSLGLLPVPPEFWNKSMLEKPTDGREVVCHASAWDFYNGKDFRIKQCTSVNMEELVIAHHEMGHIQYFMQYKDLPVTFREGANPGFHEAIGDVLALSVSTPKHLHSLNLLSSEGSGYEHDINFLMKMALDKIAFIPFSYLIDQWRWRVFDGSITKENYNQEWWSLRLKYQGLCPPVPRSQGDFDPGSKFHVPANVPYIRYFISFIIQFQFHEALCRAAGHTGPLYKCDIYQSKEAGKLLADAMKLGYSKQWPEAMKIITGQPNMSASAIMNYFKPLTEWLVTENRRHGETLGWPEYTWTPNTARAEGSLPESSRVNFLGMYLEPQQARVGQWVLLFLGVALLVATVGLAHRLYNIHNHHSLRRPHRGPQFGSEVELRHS

Chain of Neprilysin (P08473 whole entry): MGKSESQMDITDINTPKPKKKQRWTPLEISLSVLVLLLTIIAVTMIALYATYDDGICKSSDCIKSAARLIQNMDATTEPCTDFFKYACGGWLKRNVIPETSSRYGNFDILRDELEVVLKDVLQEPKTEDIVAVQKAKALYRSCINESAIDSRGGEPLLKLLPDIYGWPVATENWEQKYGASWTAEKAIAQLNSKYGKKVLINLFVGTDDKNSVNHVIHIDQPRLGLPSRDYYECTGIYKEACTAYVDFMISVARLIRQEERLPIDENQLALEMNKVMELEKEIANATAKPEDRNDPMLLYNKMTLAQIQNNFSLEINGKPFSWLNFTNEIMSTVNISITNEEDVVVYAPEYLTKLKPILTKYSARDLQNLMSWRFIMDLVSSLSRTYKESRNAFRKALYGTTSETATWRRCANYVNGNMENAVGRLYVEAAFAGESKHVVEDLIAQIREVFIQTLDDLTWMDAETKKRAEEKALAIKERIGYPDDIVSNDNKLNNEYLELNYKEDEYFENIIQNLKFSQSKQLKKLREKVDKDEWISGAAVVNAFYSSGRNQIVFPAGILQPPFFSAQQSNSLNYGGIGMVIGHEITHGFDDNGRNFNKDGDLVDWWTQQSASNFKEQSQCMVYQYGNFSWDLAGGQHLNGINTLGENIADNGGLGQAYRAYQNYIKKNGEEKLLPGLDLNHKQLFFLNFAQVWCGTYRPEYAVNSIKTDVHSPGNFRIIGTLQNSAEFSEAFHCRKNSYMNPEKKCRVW

Turning to `O=C(N[C@H]1CCCN2CC[C@@H](C(=O)O)N2C1=O)[C@@H](S)Cc1ccccc1`, at Neprilysin, the IC50 was determined as 22 nM. Besides, the ED50 with Rattus norvegicus came out at 0.12 µmol/kg.
As for `O=C(O)CN1C(=O)[C@@H](NC(=O)[C@@H](S)Cc2ccccc2)CCc2ccccc21`, the IC50 in test [1] amounted to 12 nM. Also, in the test with Rattus norvegicus, the 50% effect level (ED50) was put at a dose of 0.02 µmol/kg.
In the case of `CCCN1CCC[C@H](NC(=O)[C@@H](S)Cc2ccccc2)C(=O)N1CC(=O)O`, at Neprilysin, the IC50 was found to be 1490 nM.
As for `CN1CCC[C@H](NC(=O)[C@@H](S)Cc2ccccc2)C(=O)N1CC(=O)O`, at Neprilysin, the IC50 was 484 nM.
On to `CCCN1C(=O)CC[C@H](NC(=O)[C@@H](S)Cc2ccccc2)C(=O)N1CC(=O)O`, for which the IC50 on Neprilysin is 1920 nM.
As for `O=C(N[C@H]1CCCN2CCC[C@@H](C(=O)O)N2C1=O)[C@@H](S)Cc1ccccc1`, the IC50 at Neprilysin is 3 nM. The molecule further showed an ED50 in the test with Rattus norvegicus of 0.01 µmol/kg.
On the same counts, the results for `CN1C(=O)CC[C@H](NC(=O)[C@@H](S)Cc2ccccc2)C(=O)N1CC(=O)O` are 55 nM and 0.13 µmol/kg.
The corresponding values for `O=C(N[C@H]1CCC(=O)N2CCC[C@@H](C(=O)O)N2C1=O)[C@@H](S)Cc1ccccc1` are 16 nM and 0.23 µmol/kg.
With `O=C(N[C@H]1CCC(=O)N2CC[C@@H](C(=O)O)N2C1=O)[C@@H](S)Cc1ccccc1`, the IC50 on Neprilysin is 140 nM.
Consider `O=C(O)CN1NCCC[C@H](NC(=O)[C@@H](S)Cc2ccccc2)C1=O`, for which the IC50 on Neprilysin came to 486 nM.

In general, ED50 refers to the midpoint of the dose-response relation. A low value points to greater potency.
